{"source": "patent US6559180B2", "about": "“Nitroglycerin-menthol potentiation for treatment of angina” (priority 2001, dated 2003)", "key": {"[1]": {"experiment": "First study: sublingual pump spray in angina patients intolerant to standard 400 mcg NTG spray (intolerance and anginal pain relief)", "type": "in vivo", "conditions": "single 200 mcg NTG spray dosage sublingually, Nitrolingual solution diluted fifty percent with placebo solution; 21 patients", "description": "The first study identifies 21 patients experiencing intolerance to a standard “Nitrolingual”® NTG 400 mcg spray dosage delivered sublingually.\nThe “Nitrolingual”® solution described above was diluted fifty percent with a pharmacologically neutral solution placebo obtained from the same manufacturer, forming a combination solution. […] Each of the patients was then provided with a pump spray containing the combination solution which would limit each single spray dosage to 200 mcg NTG.\nNext, isovolumic amounts of “Nitrolingual”® Pumpspray solution and 1% Menthol solution were mixed and the combination solution was provided to patients as a pump spray."}, "[2]": {"experiment": "Second study: exercise stress tests in patients with reproducible exertional angina", "type": "in vivo", "excerpt": "The second study pertained to five patients that experienced reproducible exertional angina. The study comprised administering exercise stress tests for each patient on three consecutive days. […]\nFor each patient, the stress test was stopped with the onset of angina. The objective evidence of ischemia was indicated by the degree of S-T segment depression and presence of segmental wall abnormalities documented by echocardiographic study performed immediately after the exercise stress test.\nAll tests monitored angina with exercise, exercise tolerance, and the degree of S-T segment depression on the ECG, when: 1) no medication was administered (Table 1); […]); and, 3) a solution containing isovolumic amounts of NTG and Menthol […]"}}, "note": "“And” between values parts separate entries of the source, which are not always exact repeats. Identical values can stand only once.", "data": [{"smiles": "O=[N+]([O-])OCC(CO[N+](=O)[O-])O[N+](=O)[O-]", "note": "[NTG, Nitroglycerin]", "values": [{"measurement": "patients that did not experience intolerance", "setting": "[1]", "result": 90, "unit": "%"}, {"measurement": "patients that received satisfactory relief from anginal pain within two minutes", "setting": "[1]", "result": 19, "unit": "%"}, {"measurement": "Heart Rate at Peak", "setting": "[2]; 400 mg NTG administered prior to exercise, one line per patient (1-5)", "result": "120 and 128 and 140 and 112 and 130"}, {"measurement": "Duration of Exercise", "setting": "[2]; 400 mg NTG administered prior to exercise, test stopped at onset of angina, one line per patient (1-5)", "result": "5 min and 6 min and 6.5 min and 4.5 min and 7.5 min"}, {"measurement": "side effects observed", "setting": "[2]; 400 mcg NTG by itself or 200 mcg NTG in combination with Menthol, before exercise", "result": "No side effects were observed"}]}]}
